pIC50: −log10 of the molar value. Several values for one entry are separate records, joined by “and”; a condition that tells them apart may be missing. Equal entries are not always repeated. Where two headings read alike, the source gives them in different places.
What was measured:
[1] = target: T1, vitronectin receptor (Vn-R) (Homo sapiens, UniProt P05106+P06756); experiment: VnR binding, ELISA or liposome attachment assay (Table I)
T1 construct: from tissue; host or cells: human placenta
Method: Except where stated, all procedures were carried out at 4° C. The peptide column was washed with three volumes of Tris-buffered saline (TBS) containing 1 mM Ca^2+ and Ca^2+ and 25 mM OG and then with TBS containing 1 mM 25 mM octyl thioglucoside (OTG) at room temperature. […] Finally, Ca^2+ and Mg^+2 were added to eluted fractions to achieve final concentrations of 1 mM for both ions.
Maxisorp microtiter plates were coated with 2 μg/ml human vitronectin dissolved in PBS (50 ml/well) and stored overnight at 4° C. The plates were washed two times with PBS-0.05% Tween-20 (wash buffer) and blocked by incubating with about 150 μl/well of assay buffer (1%, BSA (RIA grade or better) in 50 mM Tris-HCl, 100 mM NaCl, 1 mM MgCl2, CaCl2, MnCl2 pH 7.4) for 60 minutes. Dilutions of standards were prepared and putative inhibitors (Table 2) were dissolved in assay buffer. The blocked plates were emptied and 20 μl/well of inhibitor or standard solution was added to each well. Twenty-five μl of a 30 μg/ml solution of purified αV β3 in assay buffer was pipetted into the coated plate. The final concentration of receptor in the assay well was about 15 μg/ml. The plate was incubated on a shaker for 60 minutes. Meanwhile, for each microtite plate, 6 ml buffer solution containing 1.5 μg/ml of mouse monoclonal antibody specific for β3 is prepared. To this solution was added the secondary antibody which is anti-mouse-Fc-HRP antibody conjugate. For example, for one plate, 6 ml of a 1.5 μg/ml mouse Mab solution was prepared to which was added 1 μl of anti-mouse-Fc-HRP antibody stock, (this represents a 1:6000 dilution of the antibody--HRP conjugate). This mixture was allowed to incubate during the receptor-inhibitor incubation. The assay plates were washed 4 times with PBS-Tween and 50 μl/well of the antibody mixture was then pipetted into the plate for a 60 minute incubation. The plate was washed 4 times and the color reaction was developed with 50 μl/well of 0.67 mg/ml o-phenyldiamine in PBS containing 0.012% H2 O2. Alternatively, 16 mM citric acid, 50 mM Na2 PO4 at pH 5.0 can be used as a substrate buffer. The reaction is stopped with 50 μl/well 1 M H2 SO4. The plates were read at 492-405 nm and the data analyzed by four-parameters fit.
Briefly, 1:4 mixture of labelled and unlabelled phosphatidylcholine (PC) liposomes was dissolved under nitrogen and diluted with an equal volume of purified receptor (purified as described in Example II) to achieve a fixed predetermined receptor-liposome concentration ratio. This mixture was then dialyzed overnight at 4° C. in phosphate buffered saline (PBS) containing 1 mM Ca^2+. An aliquot of the dialyzed sample was counted to assess radioactive content; the receptor-liposome mixture was then diluted to obtain a set radioactivity per unit volume. […]

platelets [2] = experiment: Platelet aggregation assay of Example XI; assay type: cell-based; details: for reactivity relative to 8X in platelet aggregation: fold more reactive than 8X
Method: (§1) Platelet aggregation was assessed using the method of Born, Nature 194:927-929 (1962), incorporated herein by reference. Briefly, the change in light transmission was measured through a stirred suspension of platelets in an aggregometer (Model 400 VS, Chrono-Log, Havertown, Pa., USA). […] In studies using thrombin, the PRP was gel-filtered on Sepharose 2B in divalent ion-free Tyrode's solution containing 2% BSA. For all studies, the reference standard was platelet-poor plasma, which was obtained by centrifuging PRP at 1000× g for 5 min.
(§2) (Platelet count was determined with the aid of a hemacytometer.) Peptides and stimulants were added to these suspensions in 1% dilutions. The PRP and gel-filtered platelets were used within three hours from the time of blood collection.

platelets [3] = assay type: cell-based, human; details: ADP 10 μm, platelet-rich plasma; read-out: ADP-Stimulated Aggregation (IC50)
Method: All aggregation studies were performed at 37° C. with a constantly stirred suspension of 3×10^8 platelets/ml. (Platelet count was determined with the aid of a hemacytometer.) Peptides and stimulants were added to these suspensions in 1% dilutions. The PRP and gel-filtered platelets were used within three hours from the time of blood collection.

platelets [4] = experiment: Thrombin-stimulated platelet aggregation (Table I); assay type: cell-based, human; details: thrombin 2 U/ml, gel-filtered platelets
Method: as §1, with “Platelet aggregation assays were performed following the methods of this Example or those of Example IX.G. Platelet” for “Platelet”
as §2, with “All aggregation studies were performed at 37° C. with a constantly stirred suspension of 3×10^8 platelets/ml. (Platelet” for “(Platelet”
Peptide anti-aggregation potencies were determined from dose-responsive curves for the inhibition of the maximum aggregation responses stimulated by physiologic doses of ADP (10 μm) and thrombin (2 U/ml).

coronary thrombosis = experiment: Electrically induced canine coronary thrombosis, time to full occlusion; assay type: in vivo; details: dog
Method: Male mongrel dogs weighing 14 to 20 kg were selected based on proper aggregation of their platelets in response to arachidonic acid, collagen, and adenosine disphosphate (ADP) and based on similar weights and hemodynamic properties.
Before surgery, the animals were anesthetized with sodium pentobarbital (30 mg/kg, i.v.) and then intubated and ventilated on room air with positive pressure using a respirator (Harvard Apparatus, S. Natick, Mass.) at a volume of 30 ml/kg and a frequency of 12 breaths/min. Surgery, performed under aseptic conditions, was begun with the placement of cannulae into the left carotid artery and jugular vein for monitoring arterial blood pressure (Statham P23 pressure transducer, Gould, Inc., Cardiovascular Products, Oxnard, Calif.) and administering intravenous fluids.
The heart was exposed via a left thoracotomy through the 5th intercostal space. […]
Animals were randomly assigned to two treatment groups: vehicle control (i.e., normal saline) or RGD peptides at various concentrations. […] The anti-thrombotic effects of the peptides were monitored until 30 minutes after the occurrence of a persistent, occlusive thrombus or five hours after the initiation of electrical stimulation (whichever resulted first). […]
Coronary thrombosis was quantified as the time to full occlusion. […]

platelets [5] = experiment: Ex vivo platelet aggregation in canine coronary thrombosis model; details: dog; for reduction of ex vivo aggregation relative to control levels: 3 mg/kg; for ex vivo platelet aggregation by all three stimuli: 10 mg/kg
Method: For all ex vivo studies (see FIG. 3), control aggregation values were standardized to the percentages of light transmission observed in PRP and PPP samples (0% and 100%, respectively).
Animals were randomly assigned to two treatment groups: vehicle control (i.e., normal saline) or RGD peptides at various concentrations. Peptides were administered intra-atrially in both bolus and continuous injections. Each bolus injection consisted of 0.5 to 10 mg/kg and was administered 15 minutes before application of the current. A continuous infusion of the same peptide was then started immediately after completion of this initial injection. Animals received a 25 μg/kg/min to 200 μg/kg/min infusion. The anti-thrombotic effects of the peptides were monitored until 30 minutes after the occurrence of a persistent, occlusive thrombus or five hours after the initiation of electrical stimulation (whichever resulted first). If an occlusive thrombus had not developed within four hours after the initiation of current, the peptide infusion was stopped.
Platelet counts and ex vivo aggregation studies were performed one hour before and 1, 3, and 5 hours after application of anodal direct current.
Platelet aggregation was also determined ex vivo at one, three, and five hours after current application. For these studies, arachidonic acid, or collagen was again used to stimulate the platelets.

GP IIb/IIIa = GP IIb/IIIa (Homo sapiens, UniProt P05106+P08514); experiment: Inhibition of binding of various ligands to GP IIb/IIIa; details: fibrinogen vs fibronectin and vitronectin
[6] = tested on: Gore-tex vascular graft thrombosis; experiment: Platelet and fibrinogen uptake by Gore-Tex grafts in baboon ex vivo shunt; details: baboon animal 2, 10 mg/kg bolus IV + 10 mg/kg/hr infusion for two hours
Method: Adult male baboons (weighing 16 to 25 kg) were used in these studies. These were sedated with ketamine hydrochloride (200 to 250 mg intramuscular injection) and maintained under anesthesia with sodium pentobarbital (50 to 75 mg administered intravenously as necessary).
Twenty-four hours before the ex vivo shunt was established, platelets were isolated from 500 ml of blood from the test animal and labelled with ca. 500 microcuries of indium-111 oxine (Medi+Physics, Emeryville, Calif.), which irreversibly and specifically binds to platelets with an efficiency of 50%. Immediately after labelling, these platelets were then injected back into the animal and allowed to circulate for 24 hours. Immediately before the start of the study, fibrinogen that had been isolated from the animal and labelled with iodine-131 (DuPont Nuclear, Boston, Mass.) was also injected back into the animal. Also at this time, baseline determinations of the clotting and template bleeding times were made, and blood samples were drawn for hematology studies.
To establish the ex vivo shunt, the femoral artery and vein were percutaneously cannulated with introducer catheters (KMA Inc., Mansfield, Mass.). […]
Platelet deposition onto the grafts was monitored by dynamic scanning with a gamma camera (Sigma 400, Ohio Nuclear, Inc., Sohon, Ohio), which detects the gamma radiation emitted by the ^111 indium-labelled platelets. […]

platelets [7] = experiment: Baboon ex vivo platelet aggregation (ADP); assay type: in vivo; details: baboon animal 2, PRP, ADP 10 μm
Method: At one- and two-hour time points, template bleeding times were measured, and blood samples were drawn to assess the hematology aggregation studies. Platelet aggregation studies were performed as described in Example V using ADP as the stimulus.
In addition, platelet aggregation studies were conducted on PRP derived from the second animal. Whole blood was drawn at three time points (0, 1 and 2 hours) of both control and experimental shunts.

[8] = Rabbit peripheral blood flow (PBF), laser dopler flow probe; assay type: in vivo; details: time 10 min, bolus dose printed with drug
Method: In an alternative series of experiments, (Table 2) PBF was measured quantitatively with a laser dopler flow probe (Perimed). The probe was positioned securely over the vascular bed of one ear and flow monitored continuously. Each inhibitor was infused and CBT measured in the opposing ear. No arterial catheter was placed for blood sampling, consequently XPA was measured in these animals.

T1 sequence (P06756 31-889 limits assumed): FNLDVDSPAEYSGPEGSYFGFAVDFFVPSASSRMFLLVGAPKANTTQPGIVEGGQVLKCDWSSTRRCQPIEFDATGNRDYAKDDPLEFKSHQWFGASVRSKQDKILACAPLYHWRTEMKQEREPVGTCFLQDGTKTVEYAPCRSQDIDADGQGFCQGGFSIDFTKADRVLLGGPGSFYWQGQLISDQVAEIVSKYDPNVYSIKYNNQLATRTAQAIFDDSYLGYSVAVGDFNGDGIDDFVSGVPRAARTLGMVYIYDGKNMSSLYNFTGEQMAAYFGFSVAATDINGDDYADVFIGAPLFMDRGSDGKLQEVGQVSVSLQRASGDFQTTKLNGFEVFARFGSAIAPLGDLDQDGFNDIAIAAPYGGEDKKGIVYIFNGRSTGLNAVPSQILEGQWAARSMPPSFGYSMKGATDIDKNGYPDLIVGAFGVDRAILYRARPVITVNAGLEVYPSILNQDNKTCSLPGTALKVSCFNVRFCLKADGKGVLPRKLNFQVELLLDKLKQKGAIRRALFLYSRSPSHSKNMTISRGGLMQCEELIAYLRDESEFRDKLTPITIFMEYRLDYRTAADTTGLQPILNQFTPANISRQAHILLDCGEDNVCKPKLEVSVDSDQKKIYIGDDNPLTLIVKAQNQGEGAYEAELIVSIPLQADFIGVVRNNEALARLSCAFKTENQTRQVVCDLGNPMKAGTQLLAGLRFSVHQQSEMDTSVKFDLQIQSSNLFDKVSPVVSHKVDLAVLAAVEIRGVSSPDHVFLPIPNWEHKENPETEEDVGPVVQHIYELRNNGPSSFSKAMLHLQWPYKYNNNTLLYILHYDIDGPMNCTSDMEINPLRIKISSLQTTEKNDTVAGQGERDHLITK
T1 sequence (P06756 891-1048 partner limits assumed): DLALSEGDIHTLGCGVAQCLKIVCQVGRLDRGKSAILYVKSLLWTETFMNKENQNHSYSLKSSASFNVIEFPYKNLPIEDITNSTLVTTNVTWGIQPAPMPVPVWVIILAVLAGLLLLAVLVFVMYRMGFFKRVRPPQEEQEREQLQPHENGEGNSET
T1 sequence (P05106 27-788): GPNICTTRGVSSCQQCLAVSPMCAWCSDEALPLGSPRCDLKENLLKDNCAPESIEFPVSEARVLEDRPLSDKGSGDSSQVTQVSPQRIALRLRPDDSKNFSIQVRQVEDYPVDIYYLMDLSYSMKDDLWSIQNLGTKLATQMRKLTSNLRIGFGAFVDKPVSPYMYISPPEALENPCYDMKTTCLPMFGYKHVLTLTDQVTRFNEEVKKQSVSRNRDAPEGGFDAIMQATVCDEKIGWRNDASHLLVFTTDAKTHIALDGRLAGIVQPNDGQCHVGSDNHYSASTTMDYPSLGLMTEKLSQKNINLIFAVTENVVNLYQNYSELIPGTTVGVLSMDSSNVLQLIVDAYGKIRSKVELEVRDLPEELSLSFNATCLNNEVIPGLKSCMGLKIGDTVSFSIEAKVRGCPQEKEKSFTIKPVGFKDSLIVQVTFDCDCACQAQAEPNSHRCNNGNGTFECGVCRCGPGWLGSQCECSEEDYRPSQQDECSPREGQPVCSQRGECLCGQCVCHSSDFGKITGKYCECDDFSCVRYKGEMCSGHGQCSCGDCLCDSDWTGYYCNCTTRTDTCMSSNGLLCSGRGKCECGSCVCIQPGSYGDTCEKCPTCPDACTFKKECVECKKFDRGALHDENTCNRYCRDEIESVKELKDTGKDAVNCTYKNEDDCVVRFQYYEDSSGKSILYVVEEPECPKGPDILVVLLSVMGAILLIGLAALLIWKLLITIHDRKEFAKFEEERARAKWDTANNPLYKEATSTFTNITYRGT
Sequence of GP IIb/IIIa (P08514 32-887 limits assumed): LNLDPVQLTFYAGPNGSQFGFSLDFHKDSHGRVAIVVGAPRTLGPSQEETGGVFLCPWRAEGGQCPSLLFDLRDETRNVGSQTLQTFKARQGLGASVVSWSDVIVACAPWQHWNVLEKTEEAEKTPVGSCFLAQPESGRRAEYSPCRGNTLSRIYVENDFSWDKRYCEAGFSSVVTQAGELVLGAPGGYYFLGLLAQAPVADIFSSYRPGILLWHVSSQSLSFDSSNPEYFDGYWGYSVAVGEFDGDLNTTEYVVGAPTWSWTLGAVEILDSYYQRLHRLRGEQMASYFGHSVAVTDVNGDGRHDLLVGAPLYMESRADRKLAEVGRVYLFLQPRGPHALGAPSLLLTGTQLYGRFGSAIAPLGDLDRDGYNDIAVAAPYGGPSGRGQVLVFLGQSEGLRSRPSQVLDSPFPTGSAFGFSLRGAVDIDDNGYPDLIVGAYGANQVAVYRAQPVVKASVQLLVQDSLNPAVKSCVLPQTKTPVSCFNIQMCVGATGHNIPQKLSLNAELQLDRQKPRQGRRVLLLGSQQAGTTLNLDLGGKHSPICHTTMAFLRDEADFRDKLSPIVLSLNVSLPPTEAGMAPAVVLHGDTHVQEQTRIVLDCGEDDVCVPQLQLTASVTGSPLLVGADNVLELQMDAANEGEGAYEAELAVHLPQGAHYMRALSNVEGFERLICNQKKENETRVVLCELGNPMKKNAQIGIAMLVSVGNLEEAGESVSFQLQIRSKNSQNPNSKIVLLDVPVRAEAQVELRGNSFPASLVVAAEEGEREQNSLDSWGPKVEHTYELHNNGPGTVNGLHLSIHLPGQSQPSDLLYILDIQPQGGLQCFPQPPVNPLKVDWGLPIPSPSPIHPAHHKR
Sequence of GP IIb/IIIa (P08514 891-1039 partner limits assumed): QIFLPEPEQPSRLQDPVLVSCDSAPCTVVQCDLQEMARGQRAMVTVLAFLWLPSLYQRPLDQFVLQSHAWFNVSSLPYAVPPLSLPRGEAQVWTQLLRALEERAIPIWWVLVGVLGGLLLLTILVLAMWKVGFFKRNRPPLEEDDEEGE
Sequence of GP IIb/IIIa (P05106 27-788): as the sequence (P05106 27-788) above

LRGDSPDG
pIC50 [1]: 6.70

FRGDSPDG
pIC50 [1]: 7.40

(Mpr)RGD(O-Me-Y)RC-NH2 [16A]
reactivity relative to 8X in platelet aggregation (platelets [2]): about two-fold

RGD(O-Me-Y)RE-NH2 [21I]
reactivity relative to 8X in platelet aggregation (platelets [2]): about three-fold

R2 (Pen)GRGDTPCA
pIC50 (platelets [3]): 5.09 | pIC50 (platelets [4]): 5.57

YRGDSPDG
pIC50 [1]: 7.10

R(Pen GRGDWPCR [4R]
coronary thrombosis, time to full occlusion (coronary thrombosis; 3 mg/kg): ineffective | reduction of ex vivo aggregation relative to control levels (platelets [5]; one hour): 20-58% | reduction of ex vivo aggregation relative to control levels (platelets [5]; three and five hours): 75-100% and 72-100% | ex vivo platelet aggregation by all three stimuli (platelets [5]): unresponsive to all modes of stimulation at all time points | pIC50 (platelets [4]): 6.28

Ac--CNPRGD(Y--OMe)RCNH2 [8X]
differential inhibition of ligand binding to GP IIb/IIIa (GP IIb/IIIa): inhibits the binding of fibrinogen to GP IIb/IIIa more than it inhibits the binding of fibronectin and vitronectin to the same integrin

G(Pen)GHRGDLRCA [2G]
reduction in labelled fibrinogen uptake by graft [6]: 78% | reduction in labelled platelet uptake by graft [6]: 84% | coronary thrombosis, time to full occlusion (coronary thrombosis; 10 mg/kg): did not significantly influence | ex vivo ADP-stimulated aggregation (platelets [5]; 10 mg/kg, 1, 3 and 5 h): substantially inhibited | ex vivo platelet aggregation response (platelets [7]): completely unresponsive

GNPRGD(O-Me-Y)RD-NH2 [20Q]
potency relative to 17J (platelets [2]; times more potent than 17J): about three | potency relative to 18J (platelets [2]; times more potent than 18J): about 20

VRGDSPDG
pIC50 [1]: 6.62

R(Pen)GHRGDWRCR [4Q]
PBF [8]: 9 units | ex vivo platelet activation by collagen (platelets [5]; 5 mg/kg): near-maximal inhibition | ex vivo platelet response to ADP and AA (platelets [5]; 5 mg/kg, all three time points): completely unresponsive | ex vivo platelet aggregation by all three stimuli (platelets [5]): prevented platelet aggregation by all three stimuli

Reference: US6017877A, “Method and composition for treating thrombosis” (priority 1994, dated 2000)
